Results published in PMC5872666, “Stimulation of Dectin-1 and Dectin-2 during Parenteral Immunization, but Not Mincle, Induces Secretory IgA in Intestinal Mucosa” (Journal of Immunology Research, 2018).

Target: T1, ovalbumin (OVA) (Gallus gallus, UniProt P01012)
T1 construct: gene SERPINB14; amine-coupled to CM5 chip
T1 sequence (P01012 2-386): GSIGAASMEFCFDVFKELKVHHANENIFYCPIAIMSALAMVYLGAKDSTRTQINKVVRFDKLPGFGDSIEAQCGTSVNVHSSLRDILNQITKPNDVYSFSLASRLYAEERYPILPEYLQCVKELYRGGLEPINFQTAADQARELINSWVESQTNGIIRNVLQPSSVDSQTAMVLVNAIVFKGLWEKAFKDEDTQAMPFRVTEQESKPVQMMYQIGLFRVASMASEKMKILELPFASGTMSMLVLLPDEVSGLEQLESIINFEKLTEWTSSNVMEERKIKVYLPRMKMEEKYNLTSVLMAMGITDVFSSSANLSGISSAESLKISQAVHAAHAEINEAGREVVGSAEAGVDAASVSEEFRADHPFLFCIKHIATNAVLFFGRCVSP
Test: SPR, Biacore […]
Format: binding

CCCCCCCCCCCCCCCCCCCCCC(=O)OC[C@H]1O[C@H](O[C@H]2O[C@H](COC(=O)CCCCCCCCCCCCCCCCCCCCC)[C@@H](O)[C@H](O)[C@H]2O)[C@H](O)[C@@H](O)[C@@H]1O [TDB]
Kd: 0.235 nM
